Experimental data as given in patent US20250115583A1, “BICYCLIC INDAZOLE GLUCOCORTICOID RECEPTOR ANTAGONISTS” (Corcept Therapeutics Incorporated, priority 2021, published 2025).

The compounds below were run against glucocorticoid receptor (Homo sapiens (Human), UniProt P04150) (assay: HepG2 TAT assay: inhibition of dexamethasone-induced tyrosine aminotransferase (TAT) activity). Conditions: HepG2 cells, challenge of 100 nM dexamethasone, 18-24 hr; IC50 converted to Ki by Cheng and Prusoff equation.
Type: cell-based
Protocol: Glucocorticoid mediated activation of TAT occurs by transactivation of glucocorticoid response elements in the TAT promoter by glucocorticoid receptor-agonist complex.
HepG2 cells were cultured using MEME media supplemented with 10% (v/v) foetal bovine serum; 2 mM L-glutamine and 1% (v/v) NEAA at 37° C., 5%/95% (v/v) CO2/air.
Compounds were serially half log diluted in 100% (v/v) dimethylsulphoxide from a 10 mM stock.
HepG2 cells were then lysed with 30 μl of cell lysis buffer containing a protease inhibitor cocktail for 15 minutes at 4° C. […] After 2 hours incubation at 37° C. the reaction was terminated by the addition of 15 μl of 10M aqueous potassium hydroxide solution, and the plates incubated for a further 30 minutes at 37° C.
[compound] and fitting the data to a 4 parameter logistic equation.

Chain of glucocorticoid receptor (P04150 whole entry): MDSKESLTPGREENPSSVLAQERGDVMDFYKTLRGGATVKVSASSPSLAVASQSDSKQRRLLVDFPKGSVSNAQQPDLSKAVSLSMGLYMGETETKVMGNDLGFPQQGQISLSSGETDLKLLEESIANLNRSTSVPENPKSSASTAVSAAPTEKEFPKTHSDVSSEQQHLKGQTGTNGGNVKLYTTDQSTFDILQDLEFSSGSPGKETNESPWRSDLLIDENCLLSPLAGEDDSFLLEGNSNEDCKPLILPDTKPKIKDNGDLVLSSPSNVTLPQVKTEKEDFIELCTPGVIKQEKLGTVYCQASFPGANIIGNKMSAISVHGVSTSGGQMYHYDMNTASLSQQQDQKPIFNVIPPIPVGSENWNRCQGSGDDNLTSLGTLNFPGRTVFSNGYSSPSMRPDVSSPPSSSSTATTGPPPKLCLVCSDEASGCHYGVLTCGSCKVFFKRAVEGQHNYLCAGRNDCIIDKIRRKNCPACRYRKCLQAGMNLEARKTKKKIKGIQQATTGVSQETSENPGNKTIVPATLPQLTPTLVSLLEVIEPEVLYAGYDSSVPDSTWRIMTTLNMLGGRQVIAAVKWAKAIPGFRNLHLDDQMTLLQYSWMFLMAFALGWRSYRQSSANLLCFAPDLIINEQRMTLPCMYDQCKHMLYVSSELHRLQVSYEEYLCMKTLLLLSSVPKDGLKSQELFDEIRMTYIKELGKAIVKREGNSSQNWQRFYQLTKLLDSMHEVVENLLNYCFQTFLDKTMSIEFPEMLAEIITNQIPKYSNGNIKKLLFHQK

Row | Compound | Ki [nM]
1 | 5-(6-((4,4-difluoropiperidin-1-yl)methyl)-3-((2-methyl-2H-1,2,3-triazol-4-yl)sulfonyl)-3-azabicyclo[3.1.0]hexan-1-yl)-1-(4-fluorophenyl)-6-methyl-1H-indazole [Example 181] | 250
2 | CO[C@@]1(c2ccccc2)C[C@H]2CN(C(=O)c3ccccc3)C[C@@]2(c2cc3cnn(-c4ccc(F)cc4)c3cc2C)C1 (single isomer, unassigned) [Example 20, (3a-(1-(4-fluorophenyl)-6-methyl-1H-indazol-5-yl)-5-methoxy-5-phenylhexahydrocyclopenta[c]pyrrol-2(1H)-yl)(phenyl)methanone] | 79
3 | Cc1cc2c(cnn2-c2ccc(F)cc2)cc1C12CN(S(=O)(=O)c3cnn(C)n3)CC1C2COc1ccc(Cl)cc1 (single isomer, unassigned) [Example 53, 5-(6-((4-chlorophenoxy)methyl)-3-((2-methyl-2H-1,2,3-triazol-4-yl)sulfonyl)-3-azabicyclo[3.1.0]hexan-1-yl)-1-(4-fluorophenyl)-6-methyl-1H-indazole] | 110
4 | Cc1cc2c(cnn2-c2ccc(F)cc2)cc1[C@@]12CN(S(=O)(=O)c3ccn(C)n3)C[C@@H]1[C@H]2c1ccccc1 (single isomer, unassigned) [Example 76] | 9.4
5 | Cc1cc2c(cnn2-c2ccc(F)cc2)cc1[C@@]12CN(C(=O)c3cccnc3)C[C@@H]1[C@H]2c1ccccc1 (single isomer, unassigned) [Example 112, (1-(1-(4-fluorophenyl)-6-methyl-1H-indazol-5-yl)-6-phenyl-3-azabicyclo[3.1.0]hexan-3-yl)(pyridin-3-yl)methanone] | 65
6 | COC(=O)N1C[C@@H]2[C@@H](c3ccccc3)[C@]2(c2cc3cnn(-c4ccc(F)cc4)c3cc2C)C1 (single isomer, unassigned) [Example 118, methyl 1-(1-(4-fluorophenyl)-6-methyl-1H-indazol-5-yl)-6-phenyl-3-azabicyclo[3.1.0]hexane-3-carboxylate] | 40
7 | COCC(=O)N1C[C@@H]2[C@@H](c3ccccc3)[C@]2(c2cc3cnn(-c4ccc(F)cc4)c3cc2C)C1 (single isomer, unassigned) [Example 119, 1-(1-(1-(4-fluorophenyl)-6-methyl-1H-indazol-5-yl)-6-phenyl-3-azabicyclo[3.1.0]hexan-3-yl)-2-methoxyethan-1-one] | 48
8 | CCOC(=O)N1C[C@@H]2[C@@H](c3ccccc3)[C@]2(c2cc3cnn(-c4ccc(F)cc4)c3cc2C)C1 (single isomer, unassigned) [Example 122, ethyl 1-(1-(4-fluorophenyl)-6-methyl-1H-indazol-5-yl)-6-phenyl-3-azabicyclo[3.1.0]hexane-3-carboxylate] | 22
9 | COCCOC(=O)N1C[C@@H]2[C@@H](c3ccccc3)[C@]2(c2cc3cnn(-c4ccc(F)cc4)c3cc2C)C1 (single isomer, unassigned) [Example 123, 2-methoxyethyl 1-(1-(4-fluorophenyl)-6-methyl-1H-indazol-5-yl)-6-phenyl-3-azabicyclo[3.1.0]hexane-3-carboxylate] | 27
10 | CNC(=O)N1C[C@@H]2[C@@H](c3ccccc3)[C@]2(c2cc3cnn(-c4ccc(F)cc4)c3cc2C)C1 (single isomer, unassigned) [Example 124, 1-(1-(4-fluorophenyl)-6-methyl-1H-indazol-5-yl)-N-methyl-6-phenyl-3-azabicyclo[3.1.0]hexane-3-carboxamide] | 120
11 | Cc1cc2c(cnn2-c2ccc(F)cc2)cc1[C@@]12CN(C(=O)OC3CCOCC3)C[C@@H]1[C@H]2c1ccccc1 (single isomer, unassigned) [Example 125, tetrahydro-2H-pyran-4-yl 1-(1-(4-fluorophenyl)-6-methyl-1H-indazol-5-yl)-6-phenyl-3-azabicyclo[3.1.0]hexane-3-carboxylate] | 29
12 | Cc1cc2c(cnn2-c2ccc(F)cc2)cc1[C@@]12CN(C(=O)N3CCCC3)C[C@@H]1[C@H]2c1ccccc1 (single isomer, unassigned) [Example 126, (1-(1-(4-fluorophenyl)-6-methyl-1H-indazol-5-yl)-6-phenyl-3-azabicyclo[3.1.0]hexan-3-yl)(pyrrolidin-1-yl)methanone] | 34
13 | Cc1cc2c(cnn2-c2ccc(F)cc2)cc1[C@@]12CN(C(=O)c3ccccc3F)C[C@@H]1[C@H]2c1ccccc1 (single isomer, unassigned) [Example 128, (2-fluorophenyl)(1-(1-(4-fluorophenyl)-6-methyl-1H-indazol-5-yl)-6-phenyl-3-azabicyclo[3.1.0]hexan-3-yl)methanone] | 5.9
14 | Cc1cc2c(cnn2-c2ccc(F)cc2)cc1[C@@]12CN(C(=O)c3cnn(C)c3)C[C@@H]1[C@H]2c1ccccc1 (single isomer, unassigned) [Example 129, (1-(1-(4-fluorophenyl)-6-methyl-1H-indazol-5-yl)-6-phenyl-3-azabicyclo[3.1.0]hexan-3-yl)(1-methyl-1H-pyrazol-4-yl)methanone] | 37
15 | Cc1cc2c(cnn2-c2ccc(F)cc2)cc1[C@@]12CN(S(=O)(=O)C3COC3)C[C@@H]1[C@H]2c1ccccc1 (single isomer, unassigned) [Example 140, 5-(3-(oxetan-3-ylsulfonyl)-6-phenyl-3-azabicyclo[3.1.0]hexan-1-yl)-1-(4-fluorophenyl)-6-methyl-1H-indazole] | 65
16 | Cc1cc2c(cnn2-c2ccc(F)cc2)cc1[C@@]12CN(C(=O)c3ncccc3C(F)(F)F)C[C@@H]1[C@H]2c1ccccc1 (single isomer, unassigned) [Example 148, (1-(1-(4-fluorophenyl)-6-methyl-1H-indazol-5-yl)-6-phenyl-3-azabicyclo[3.1.0]hexan-3-yl)(3-(trifluoromethyl)pyridin-2-yl)methanone] | 9.2

Continued by falling Ki, values first:

Row | Ki [nM] | Compound
17 | 380 | Cc1cc2c(cnn2-c2ccc(F)cc2)cc1C12CN(S(=O)(=O)c3cnn(C)n3)CC1C2COc1ccc(Cl)cc1 (single isomer, unassigned) [Example 52, 5-(6-((4-chlorophenoxy)methyl)-3-((2-methyl-2H-1,2,3-triazol-4-yl)sulfonyl)-3-azabicyclo[3.1.0]hexan-1-yl)-1-(4-fluorophenyl)-6-methyl-1H-indazole]
18 | 300 | CC(=O)NC[C@@H]1[C@H]2CN(S(=O)(=O)c3cnn(C)n3)C[C@@]12c1cc2cnn(-c3ccc(F)cc3)c2cc1C (racemic) [Example 135, N-((1-(1-(4-fluorophenyl)-6-methyl-1H-indazol-5-yl)-3-((2-methyl-2H-1,2,3-triazol-4-yl)sulfonyl)-3-azabicyclo[3.1.0]hexan-6-yl)methyl)acetamide]
19 | 58 | Cc1cc2c(cnn2-c2ccc(F)cc2)cc1[C@@]12CN(C(=O)C(C)C)C[C@@H]1[C@H]2c1ccccc1 (single isomer, unassigned) [Example 113, 1-(1-(1-(4-fluorophenyl)-6-methyl-1H-indazol-5-yl)-6-phenyl-3-azabicyclo[3.1.0]hexan-3-yl)-2-methylpropan-1-one]
20 | 52 | CC(=O)N1C[C@@H]2[C@@H](c3ccccc3)[C@]2(c2cc3cnn(-c4ccc(F)cc4)c3cc2C)C1 (single isomer, unassigned) [Example 111, 1-(1-(1-(4-fluorophenyl)-6-methyl-1H-indazol-5-yl)-6-phenyl-3-azabicyclo[3.1.0]hexan-3-yl)ethan-1-one]
21 | 28 | Cc1cc2c(cnn2-c2ccc(F)cc2)cc1[C@@]12CN(S(=O)(=O)N3CCCC3)C[C@@H]1[C@H]2c1ccccc1 (single isomer, unassigned) [Example 99]
22 | 24 | CCCn1cc(S(=O)(=O)N2C[C@@H]3[C@@H](c4ccccc4)[C@]3(c3cc4cnn(-c5ccc(F)cc5)c4cc3C)C2)cn1 (single isomer, unassigned) [Example 69, 1-(4-fluorophenyl)-6-methyl-5-(6-phenyl-3-((1-propyl-1H-pyrazol-4-yl)sulfonyl)-3-azabicyclo[3.1.0]hexan-1-yl)-1H-indazole]
23 | 19 | Cc1cc2c(cnn2-c2ccc(F)cc2)cc1[C@@]12CN(C(=O)c3cnn(C)n3)C[C@@H]1[C@H]2c1ccccc1 (single isomer, unassigned) [Example 127, (1-(1-(4-fluorophenyl)-6-methyl-1H-indazol-5-yl)-6-phenyl-3-azabicyclo[3.1.0]hexan-3-yl)(2-methyl-2H-1,2,3-triazol-4-yl)methanone]
24 | 19 | COc1cccc(C(=O)N2C[C@@H]3[C@@H](c4ccccc4)[C@]3(c3cc4cnn(-c5ccc(F)cc5)c4cc3C)C2)c1 (single isomer, unassigned) [Example 141, (1-(1-(4-fluorophenyl)-6-methyl-1H-indazol-5-yl)-6-phenyl-3-azabicyclo[3.1.0]hexan-3-yl)(3-methoxyphenyl)methanone]
25 | 14 | Cc1ccnc(C(=O)N2C[C@@H]3[C@@H](c4ccccc4)[C@]3(c3cc4cnn(-c5ccc(F)cc5)c4cc3C)C2)c1 (single isomer, unassigned) [Example 146, (1-(1-(4-fluorophenyl)-6-methyl-1H-indazol-5-yl)-6-phenyl-3-azabicyclo[3.1.0]hexan-3-yl)(4-methylpyridin-2-yl)methanone]
26 | 5.7 | Cc1cc2c(cnn2-c2ccc(F)cc2)cc1[C@@]12CN(C(=O)c3ccccc3C#N)C[C@@H]1[C@H]2c1ccccc1 (single isomer, unassigned) [Example 130, 2-(1-(1-(4-fluorophenyl)-6-methyl-1H-indazol-5-yl)-6-phenyl-3-azabicyclo[3.1.0]hexane-3-carbonyl)benzonitrile]
